Laboratory results taken from US20050182025A1, “Amidinylphenyl compounds and their use as fungicides” (priority 2002, published 2005).

How the values were obtained:
Assay type in all cases: in vivo
Septoria nodorum = assay: Test C: preventive spray on wheat seedlings, Septoria glume blotch, disease rating; details: wheat seedlings sprayed to run-off, inoculated the following day with Septoria nodorum, 48 h saturated atmosphere then 9 days at 20° C.; test concentration not given
Procedure, shortened: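 Preventive test: one day after spraying (to run-off; 200 ppm ≈ 500 g/ha, in acetone/water with 250 ppm surfactant), seedlings received a S. nodorum spore suspension. After 48 h in saturated air and 9 days in a growth chamber, both at 20° C., % disease control versus controls was scored.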

Puccinia recondita = assay: Test B: preventive spray on wheat seedlings, wheat leaf rust, disease rating; details: wheat seedlings sprayed to run-off, inoculated the following day with Puccinia recondita, 24 h saturated atmosphere then 6 days at 20° C.; test concentration not given
Procedure, shortened: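 Preventive test: seedlings inoculated with Puccinia recondita one day after run-off spraying with test suspension (acetone/water, 250 ppm Trem 014; 200 ppm equals 500 g/ha). Rating after 24 h at 20° C in saturation plus 6 days in 20° C growth chamber; 0–100 scale versus controls.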

[1] = system: Erysiphe graminis f. sp. tritici; assay: Test A: preventive spray on wheat seedlings, wheat powdery mildew, disease rating; details: wheat seedlings sprayed to run-off, inoculated the following day with Erysiphe graminis f. sp. tritici, rated after 7 days at 20° C.; test concentration not given
Procedure, shortened: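 Preventive test: Erysiphe graminis f. sp. tritici spore dust applied one day after run-off spraying of seedlings with acetone/water/surfactant suspension, 200 ppm equating to 500 g/ha. Plants held 7 days at 20 °C; ratings give % disease control versus controls, 100 full, 0 none.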

| SMILES | Test C disease control rating (100 = 100% disease control, 0 = no disease control relative to the controls) (Septoria nodorum) | Test B disease control rating (100 = 100% disease control, 0 = no disease control relative to the controls) (Puccinia recondita) | Test A disease control rating (100 = 100% disease control, 0 = no disease control relative to the controls) [1] |
| --- | --- | --- | --- |
| CCCCC(CCC)Sc1cc(C)c(N=C(C)N(C)C)cc1C (stereo not drawn) [compound 142] | 53% | 0% | 0% |
| CCCC(CCC)Sc1cc(C)c(N=CN(C)C)cc1C [compound 157] | 99% | 96% | 0% |
| C=CCN(C)C=Nc1cc(Cl)c(OCCC[Si](C)(C)C)cc1C [compound 56] | 100% | 100% | 100% |
| CC(C)=CCC[C@H](C)CCOc1cc(C)c(N=CN(C)C)cc1C [Compound 14] | 0% | 100% | 90% |
| CN(C)C(=S)Nc1cc(Cl)c(OCCCC(C)(C)C)cc1Cl [compound 186] | 0% | 9% | 94% |
| CCN(C)C(=S)Nc1cc(C(C)C)c(OCCC[Si](C)(C)C)cc1C [compound 94] | 100% | 100% | 99% |
| CCN(C)C(=S)Nc1cc(C)c(OCCC[Si](C)(C)C)c(Cl)c1C [compound 134] | 81% | 100% | 100% |
| CCC(CC)Oc1cc(C)c(N=CN(C)C)cc1C [Compound 34] | 0% | 100% | 96% |
| Cc1cc(OCCCC(C)C)c(C)cc1N=CN(C)C [compound 132] | 97% | 100% | 98% |
| Cc1cc(OCCCCCl)c(C)cc1N=CN(C)C [Compound 16] | 97% | 100% | 88% |
| Cc1cc(NC(=S)N(C)C)c(C)c(Cl)c1OCCCC(C)(C)C [compound 138] | 60% | 74% | 98% |
| CCN(CC)C(=S)Nc1cc(Cl)c(OCCC[Si](C)(C)C)cc1Cl [compound 185] | 63% | 98% | 99% |
| CN(C)C(=S)Nc1cc(Cl)c(OCCC[Si](C)(C)C)cc1Cl [compound 183] | 90% | 85% | 99% |
| CC[Si](C)(CC)CCCOc1cc(C)c(N=CN(C)C)cc1C [Compound 53] | 99% | 100% | 100% |
| Cc1cc(OCCC[Si](C)(C)C)c(F)cc1N=CN(C)C(C)C [compound 63] | 100% | 100% | 100% |
| Cc1cc(NC(=O)NCC(C)(C)C)c(C)cc1N=CN(C)C [compound 190] | 0% | 68% | 0% |
| Cc1cc(OCCCCC(C)(C)C#N)c(C)cc1N=CN(C)C [Compound 47] | 80% | 99% | 29% |
| CCN(C)C(=S)Nc1cc(C)c(OCCCC(C)C)cc1C [compound 106] | 100% | 100% | 100% |
| Cc1cc(OCCC[Si](C)(C)C)c(Cl)cc1N=CN(C)C1CC1 [compound 61] | 100% | 100% | 100% |
| CCC[Si](C)(C)CCCOc1cc(C)c(N=CN(C)C)cc1C [Compound 52] | 99% | 100% | 100% |
| CCCCN(C)C=Nc1cc(F)c(OCCC[Si](C)(C)C)cc1C [compound 62] | 100% | 100% | 100% |
| CC[Si](C)(C)CCCOc1cc(C)c(N=CN(C)C2CC2)cc1Cl [compound 65] | 96% | 100% | 100% |
| CCN(C)C(=S)Nc1cc(C)c(OCCC[Si](C)(CC)CC)cc1C [compound 79] | 100% | 99% | 0% |
| CCCCC(CCCC)Nc1cc(C)c(N=CN(C)C)cc1C [compound 150] | 47% | 0% | 0% |
| CCOC(C)(C)CCCOc1cc(C)c(N=CN(C)C)cc1C [Compound 44] | 99% | 100% | 99% |
| CCN(C)C=Nc1cc(C(C)C)c(OCCC[Si](C)(C)C)cc1C [compound 76] | 100% | 100% | 100% |
| CCN(C)C(=S)Nc1cc(C)c(OCCCC(C)C)c(Cl)c1C [compound 137] | 84% | 100% | 100% |
| Cc1cc(OCCC[Si](C)(C)C)c(C(C)C)cc1NC(=S)N(C)C(C)C [compound 92] | 100% | 100% | 100% |
